Source: patent US11684614B2, “Formulations of hydroxypyridonate actinide/lanthanide decorporation agents” (priority 2017, dated 2023)
Where “and” joins values, the source holds several entries; their conditions need not be identical. Equal values may be shown once.

Assay: Repeated-treatment efficacy for removing an intravenous dose of 238Pu (excretion, tissue retention, clinical observations), female and male arms
Assay type: in vivo, Swiss-Webster mice
Conditions: for tissue content of 238Pu compared to saline control group: all analyzed tissues, all dosing regimens; for % Recovered Dose - Feces per Day: group H
Procedure: The objective of this study was to characterize the efficacy of 3,4,3-L1(1,2-HOPO) at enhancing elimination from an internal plutonium burden in female and male Swiss-Webster mice administered a soluble citrate complex of ^238Pu and treated multiple times, starting at 24 hours after the exposure. Efficacy was evaluated by comparing the tissue contents, urinary and fecal excretions of ^238Pu in treated animals versus untreated animals.
The medical countermeasure 3,4,3-L1(1,2-HOPO) was administered parenterally (ip) or orally (po) via consecutive injections or gavages (six daily or twelve twice daily) starting at 24 hours post contamination at the following four selected doses: 30 μmol/kg ip, 150 μmol/kg po, 300 μmol/kg po, and 600 μmol/kg po (equivalent to respective approximate human doses range of […], using the accepted conversion system of mouse doses into human equivalent doses—HED—based on body surface area). Oral doses also included the permeability enhancer selected during formulation development work.
• Challenge isotope: ^238Pu • Challenge dose: 25 nCi (i.e., approximately 0.8 μCi/kg) • Route of contamination: Intravenous (iv) tail-vein • Route of treatment: Intraperitoneal Injection (ip) or Oral (po) • Frequency of treatment: Multiple (once- or twice-daily for 6 days) doses, starting 24 hr postcontamination • Treatment dose calculation: Dose calculations (mg/kg or μmol/kg) for the decorporation agent were based on the individual body weight measured after contamination. • Study Duration: 11 days, in-life
c. […] Test article and control dose formulations were prepared within 1 day of dose administration, by weighing out the appropriate amount of test article, dispersing in vehicle. For ip solutions, the test article was used alone, while for oral suspensions, a mixture of test article and excipient (90:10, w:w) was used. The pH was adjusted to 7.0-7.4 for ip administration and 5.0-5.5 for oral administration with sterile NaOH. Dose formulations were prepared at room temperature and filter-sterilized. • Storage: 2-8° C.; refrigerated; protected from light. • Characterization: The concentration of each test article formulation was verified by high-performance liquid chromatography-mass spectrometry. • Test Article Handling: Test, reference, and control article formulations were handled with the use of eye protection, gloves, and a protective laboratory coat. • Correct Dose Assurance: The test article was weighed with calibrated balances. The administration of each dose formulation was properly documented, and the amount administered to each animal recorded.
e. Experimental Procedures (In-Life Evaluations and Euthanasia) • Contamination: Single administration by intravenous (iv) tail-vein injection (0.2 mL injection volume) under isoflurane anesthesia. Three standard 0.2 mL injections were performed into polyethylene bottles and pre-loaded with aliquots of concentrated nitric acid on each injection day. Six female and six male mice were culled for necropsy 1 hr post-contamination and were used as standards. A11 standards were processed and counted together with the final samples to allow verification of the contamination dose. • Dose Administration: Single administration by intraperitoneal injection (ip) or oral gavage (po) under isoflurane anesthesia. • Mortality/Morbidity: Assessed at least once daily. • Clinical Observations: Recorded once daily (4 hr post-dose on day of treatment), or more often as clinical signs warranted. […]

[1] = female mice, 30 μmol/kg, IP, 11-day necropsy
[2] = female mice, 30 μmol/kg, IP, 11-day necropsy, over untreated control group
[3] = female mice, 30 μmol/kg, IP, 11-day necropsy, vs untreated control group
[4] = male animals, Day-11 necropsy, animal group H
[5] = male arm table, Day 11 necropsy, animal group H
[6] = male mice, 30 μmol/kg, IP, 11-day necropsy
[7] = male mice, 30 μmol/kg, IP, 11-day necropsy, over untreated control group
[8] = male mice, 30 μmol/kg, IP, 11-day necropsy, vs untreated control group

## O=C(O)CN(CCN(CC(=O)O)CC(=O)O)CCN(CC(=O)O)CC(=O)O [DTPA, diethylenetriaminepentaacetic acid, reference compound]
Female and male mice
  238Pu excretion path: through urine
[1]
  ^238Pu excretion, Total Excretion, Avg: 72.13 percent recovered dose
  ^238Pu excretion, Total Feces, Avg: 30.20 percent recovered dose
  ^238Pu excretion, Total Urine, Avg: 41.93 percent recovered dose
  ^238Pu retention, GI Tract, Avg: 0.54 percent recovered dose
  ^238Pu retention, Kidney, Avg: 0.13 percent recovered dose
  ^238Pu retention, Liver, Avg: 4.14 percent recovered dose
  ^238Pu retention, Soft Tissue, Avg: 1.66 percent recovered dose
  ^238Pu retention, Total Body, Avg: 27.87 percent recovered dose
  ^238Pu retention, Total Bone, Avg: 21.40 percent recovered dose
[2]
  ^238Pu percent increase in excretion, Total Excretion: 143.34%
  ^238Pu percent increase in excretion, Total Feces: 106.02%
  ^238Pu percent increase in excretion, Total Urine: 192.03%
[3]
  ^238Pu percent tissue reduction, GI Tract: 59.99%
  ^238Pu percent tissue reduction, Kidney: 51.24%
  ^238Pu percent tissue reduction, Liver: 65.62%
  ^238Pu percent tissue reduction, Soft Tissue: 41.56%
  ^238Pu percent tissue reduction, Total Body: 43.90%
  ^238Pu percent tissue reduction, Total Bone: 35.51%
female
  tissue content of 238Pu compared to saline control group: large reductions
[4]
  % Recovered Dose Combined Body: 31.58% and 24.29% and 33.79% and 30.93% and 32.00% and 29.03% and 23.14% and 27.41%
  % Recovered Dose Combined Excreta: 68.42% and 74.71% and 66.21% and 69.07% and 68.00% and 70.97% and 76.86% and 72.59%
  % Recovered Dose GI Tract: 1.75% and 0.46% and 0.91% and 0.70% and 0.71% and 0.57% and 0.52% and 0.47%
  % Recovered Dose Kidney: 0.14% and 0.28% and 0.20% and 0.21% and 0.11% and 0.15% and 0.17%
  % Recovered Dose Liver: 5.98% and 3.55% and 5.50% and 4.81% and 4.85% and 4.26% and 4.33% and 4.96%
  % Recovered Dose Soft Tissue: 2.40% and 1.47% and 2.34% and 2.95% and 2.10% and 1.91% and 1.81% and 1.44%
  % Recovered Dose Total Bone: 21.31% and 18.54% and 24.85% and 22.27% and 24.22% and 22.15% and 16.34% and 20.37%
[5]
  % Recovered Dose Urine per Day, Day 2: 7.92% and 8.51% and 7.65% and 2.69% and 6.20% and 7.54% and 5.46% and 8.58%
  % Recovered Dose Urine per Day, Day 3: 3.90% and 4.79% and 4.05% and 2.57% and 3.66% and 4.86% and 4.80% and 5.85%
  % Recovered Dose Urine per Day, Day 4: 3.05% and 3.34% and 2.72% and 0.84% and 2.10% and 3.61% and 2.55% and 2.58%
  % Recovered Dose Urine per Day, Day 5: 1.94% and 1.91% and 2.47% and 1.16% and 1.62% and 3.01% and 2.10% and 2.23%
  % Recovered Dose Urine per Day, Day 6: 1.36% and 1.21% and 1.73% and 0.80% and 1.18% and 1.69% and 1.57% and 1.37%
  % Recovered Dose Urine per Day, Day 7: 1.74% and 1.68% and 1.50% and 1.67% and 1.63% and 1.84% and 1.87% and 1.77%
  % Recovered Dose Urine per Day, Day 8: 0.96% and 0.76% and 0.90% and 0.53% and 0.64% and 0.85% and 1.18% and 0.65%
  % Recovered Dose Urine per Day, Day 9: 0.92% and 0.50% and 1.01% and 0.62% and 0.49% and 0.72% and 0.87% and 0.69%
  % Recovered Dose Urine per Day, Day 10: 0.35% and 0.32% and 0.27% and 0.21% and 0.49% and 0.38%
  % Recovered Dose Urine per Day, Day 11: 0.20% and 0.84% and 0.25% and 0.28% and 0.33% and 0.44% and 0.55% and 0.31%
Male mice, feces day 2, Day 11 necropsy
  % Recovered Dose - Feces per Day: 2.78% and 4.90% and 1.40% and 7.06% and 3.40% and 6.60% and 7.14% and 5.64%
Male mice, feces day 3, Day 11 necropsy
  % Recovered Dose - Feces per Day: 3.63% and 6.69% and 4.80% and 10.31% and 4.70% and 6.91% and 8.25% and 7.45%
Male mice, feces day 4, Day 11 necropsy
  % Recovered Dose - Feces per Day: 3.78% and 4.47% and 3.18% and 7.97% and 3.38% and 4.66% and 5.75% and 4.65%
Male mice, feces day 5, Day 11 necropsy
  % Recovered Dose - Feces per Day: 1.51% and 1.78% and 1.71% and 3.62% and 1.81% and 1.45% and 2.38% and 1.92%
Male mice, feces day 6, Day 11 necropsy
  % Recovered Dose - Feces per Day: 1.64% and 2.00% and 2.45% and 2.79% and 1.57% and 1.96% and 1.83% and 1.74%
Male mice, feces day 7, Day 11 necropsy
  % Recovered Dose - Feces per Day: 1.05% and 1.04% and 1.03% and 2.05% and 1.28% and 0.78% and 1.36% and 3.81%
Male mice, feces day 8, Day 11 necropsy
  % Recovered Dose - Feces per Day: 0.81% and 0.75% and 1.29% and 1.70% and 0.85% and 0.78% and 1.19% and 1.40%
Male mice, feces day 9, Day 11 necropsy
  % Recovered Dose - Feces per Day: 0.43% and 0.51% and 0.65% and 1.29% and 0.58% and 0.39% and 0.64% and 0.87%
Male mice, feces day 10, Day 11 necropsy
  % Recovered Dose - Feces per Day: 0.38% and 0.40% and 0.33% and 0.79% and 0.42% and 0.30% and 0.52% and 0.68%
Male mice, feces day 11, Day 11 necropsy
  % Recovered Dose - Feces per Day: 0.37% and 0.35% and 0.40% and 0.78% and 0.36% and 0.30% and 0.52% and 0.77%
[6]
  ^238Pu excretion, Total Excretion, Avg: 70.98 percent recovered dose
  ^238Pu excretion, Total Feces, Avg: 35.89 percent recovered dose
  ^238Pu excretion, Total Urine, Avg: 35.09 percent recovered dose
  ^238Pu retention, GI Tract, Avg: 0.76 percent recovered dose
  ^238Pu retention, Kidney, Avg: 0.17 percent recovered dose
  ^238Pu retention, Liver, Avg: 4.78 percent recovered dose
  ^238Pu retention, Soft Tissue, Avg: 2.05 percent recovered dose
  ^238Pu retention, Total Body, Avg: 29.02 percent recovered dose
  ^238Pu retention, Total Bone, Avg: 21.26 percent recovered dose
[7]
  238Pu percent increase in excretion, Total Excretion: 149.50%
  238Pu percent increase in excretion, Total Feces: 140.57%
  238Pu percent increase in excretion, Total Urine: 159.88%
[8]
  ^238Pu percent tissue reduction, GI Trace: 61.32%
  ^238Pu percent tissue reduction, Kidney: 47.89%
  ^238Pu percent tissue reduction, Liver: 71.51%
  ^238Pu percent tissue reduction, Soft Tissue: 42.09%
  ^238Pu percent tissue reduction, Total Body: 44.74%
  ^238Pu percent tissue reduction, Total Bone: 28.92%
male
  tissue content of 238Pu compared to saline control group: large reductions
